In paper PMC4380750 (Bioorganic & medicinal chemistry, 2015):

Tests used:
MOR [1] = biological target: T1, MOR (Mus musculus, UniProt P42866); assay: biochemical; conditions: for less potent than naltrexone in the MOR [35S]GTPγS binding assay: EC50 compared with naltrexone; for Emax: read-out: MOR [35S]GTPγS Binding %Emax of DAMGO
DOR [2] = biological target: T2, DOR (Mus musculus, UniProt P32300); assay: DOR [35S]GTPγS binding functional assay; format: biochemical; conditions: vs naltrexone
Swiss-Webster mice [3] = assay: Opioid withdrawal assays in chronic morphine-pelleted mice; format: in vivo, mouse
DOR [4] = biological target: T2, DOR; assay: Radioligand competition binding assay, [3H]naltrindole, mDOR-CHO cell membranes; conditions: ratio of Ki values, MOR vs DOR
KOR [5] = conditions: electrically stimulated guinea pig ileal longitudinal muscle; cited from earlier work
hMOR = hMOR (Homo sapiens, UniProt P35372); assay: Ca2+ flux assay in Gαqi5 transfected hMOR-CHO cells; format: cell-based; conditions: for agonism, increase of intracellular Ca2+ level: agonism study, compared to DAMGO
MOR [6] = biological target: T1, MOR; format: binding
Swiss-Webster mice [7] = assay: Warm-water tail immersion assay, agonism study; format: in vivo, mouse
KOR [8] = biological target: KOR (Mus musculus, UniProt P33534); assay: KOR [35S]GTPγS binding functional assay; format: biochemical
KOR [9] = conditions: binding affinity; cited from earlier work
[10] = 1 mg/kg s.c., morphine-pelleted mice, counted over 20 min

T1 sequence (P42866 whole entry): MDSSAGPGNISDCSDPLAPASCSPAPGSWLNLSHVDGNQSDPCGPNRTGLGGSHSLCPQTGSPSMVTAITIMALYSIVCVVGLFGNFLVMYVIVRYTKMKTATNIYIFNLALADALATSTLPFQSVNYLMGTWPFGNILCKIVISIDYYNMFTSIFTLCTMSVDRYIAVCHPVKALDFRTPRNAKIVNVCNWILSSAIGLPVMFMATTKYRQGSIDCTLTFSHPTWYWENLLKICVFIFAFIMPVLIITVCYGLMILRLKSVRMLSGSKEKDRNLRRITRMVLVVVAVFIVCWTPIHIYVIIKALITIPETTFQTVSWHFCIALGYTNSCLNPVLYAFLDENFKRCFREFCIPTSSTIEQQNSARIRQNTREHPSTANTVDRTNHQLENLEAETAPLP
Sequence of hMOR (P35372 whole entry): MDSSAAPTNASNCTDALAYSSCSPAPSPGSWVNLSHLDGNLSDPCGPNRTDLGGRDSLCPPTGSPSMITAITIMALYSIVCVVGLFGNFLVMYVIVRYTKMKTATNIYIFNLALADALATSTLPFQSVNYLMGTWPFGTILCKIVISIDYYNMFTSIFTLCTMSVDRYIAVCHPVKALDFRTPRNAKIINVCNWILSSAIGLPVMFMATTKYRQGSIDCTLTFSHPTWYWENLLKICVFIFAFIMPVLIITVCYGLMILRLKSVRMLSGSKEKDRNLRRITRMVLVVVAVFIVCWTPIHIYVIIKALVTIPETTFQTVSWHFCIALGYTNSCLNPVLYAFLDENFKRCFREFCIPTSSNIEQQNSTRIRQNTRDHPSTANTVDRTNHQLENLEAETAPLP
Sequence of KOR (Mus musculus, UniProt P33534) (P33534 whole entry): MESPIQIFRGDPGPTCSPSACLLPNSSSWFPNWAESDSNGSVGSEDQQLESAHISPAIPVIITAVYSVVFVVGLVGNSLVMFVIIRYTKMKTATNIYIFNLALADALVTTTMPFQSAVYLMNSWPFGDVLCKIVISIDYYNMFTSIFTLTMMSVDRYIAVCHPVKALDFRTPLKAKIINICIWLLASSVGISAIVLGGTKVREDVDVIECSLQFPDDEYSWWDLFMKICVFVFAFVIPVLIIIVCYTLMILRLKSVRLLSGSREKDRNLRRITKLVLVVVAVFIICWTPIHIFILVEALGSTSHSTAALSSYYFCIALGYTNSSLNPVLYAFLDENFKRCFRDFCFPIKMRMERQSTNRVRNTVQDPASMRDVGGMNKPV
T2 sequence (P32300 whole entry): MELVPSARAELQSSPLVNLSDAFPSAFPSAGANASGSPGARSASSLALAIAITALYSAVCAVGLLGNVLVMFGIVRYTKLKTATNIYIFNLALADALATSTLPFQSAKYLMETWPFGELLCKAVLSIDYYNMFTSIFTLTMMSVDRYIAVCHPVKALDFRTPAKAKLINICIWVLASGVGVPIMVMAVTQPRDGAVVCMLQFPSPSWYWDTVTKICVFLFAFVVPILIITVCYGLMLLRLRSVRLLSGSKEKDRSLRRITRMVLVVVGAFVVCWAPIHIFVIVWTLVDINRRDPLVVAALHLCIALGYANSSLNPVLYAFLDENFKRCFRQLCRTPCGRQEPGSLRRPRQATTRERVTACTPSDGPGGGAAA

COc1cc2cnc(C(=O)N[C@H]3CC[C@@]4(O)[C@H]5Cc6ccc(O)c7c6[C@@]4(CCN5CC4CC4)[C@H]3O7)cc2cc1OC [Compound 14, 17-Cyclopropylmethyl-3,14β-dihydroxy-4,5α-epoxy-6α-(6,7-dimethoxyisoquinoline-3-carboxamido)morphinan]
less potent than naltrexone in the MOR [35S]GTPγS binding assay (MOR [1]): ≥ 200 fold

O=C(N[C@H]1CC[C@@]2(O)[C@H]3Cc4ccc(O)c5c4[C@@]2(CCN3CC2CC2)[C@H]1O5)c1cc2ccccc2cn1 [NAQ, 17-cyclopropylmethyl-3,14β-dihydroxy-4,5α-epoxy-6α-(isoquinoline-3′-carboxamido)morphinan, reference compound]
DOR [35S]GTPγS potency, less potent compared to naltrexone (DOR [2]): 7- to 25 fold

O=C(CCc1cc2ccccc2cn1)N[C@H]1CC[C@@]2(O)[C@H]3Cc4ccc(O)c5c4[C@@]2(CCN3CC2CC2)[C@H]1O5 [Compound 2, 17-Cyclopropylmethyl-3,14β-dihydroxy-4,5α-epoxy-6α-[3-(isoquinolin-3-yl)propanamido)morphinan]
Emax (MOR [1]): 27.4 ± 0.35%

O=C1CC[C@@]2(O)[C@H]3Cc4ccc(O)c5c4[C@@]2(CCN3CC2CC2)[C@H]1O5 [NTX, naltrexone, reference compound]
escape jumps (Swiss-Webster mice [3]; [10]): 30.0 ± 12.1 times
wet-dog shakes (Swiss-Webster mice [3]; [10]): 14.8 ± 2.2 times

O=C(N[C@H]1CC[C@@]2(O)[C@H]3Cc4ccc(O)c5c4[C@@]2(CCN3CC2CC2)[C@H]1O5)c1nc(Cl)c2ccccc2c1O [Compound 5, 17-Cyclopropylmethyl-3,14β-dihydroxy-4,5α-epoxy-6α-(1-chloro-4-hydroxyisoquinoline-3-carboxamido)morphinan]
Emax (MOR [1]): 19.8 ± 0.8%
Selectivity δ/µ (DOR [4]): > 15

N#Cc1nc(C(=O)N[C@H]2CC[C@@]3(O)[C@H]4Cc5ccc(O)c6c5[C@@]3(CCN4CC3CC3)[C@H]2O6)cc2ccccc12 [Compound 9, 17-Cyclopropylmethyl-3,14β-dihydroxy-4,5α-epoxy-6α-(1-cyanoisoquinoline-3-carboxamido)morphinan]
Emax (MOR [1]): 37.5 ± 0.7%

Cc1nc(C(=O)N[C@H]2CC[C@@]3(O)[C@H]4Cc5ccc(O)c6c5[C@@]3(CCN4CC3CC3)[C@H]2O6)cc2ccccc12 [Compound 10, 17-Cyclopropylmethyl-3,14β-dihydroxy-4,5α-epoxy-6α-(1-methylisoquinolin-3-carboxamido)morphinan]
Emax (MOR [1]): 22.2 ± 0.4%

O=C(N[C@H]1CC[C@@]2(O)[C@H]3Cc4ccc(O)c5c4[C@@]2(CCN3CC2CC2)[C@H]1O5)c1cc2ccc([N+](=O)[O-])cc2cn1 [Compound 12, 17-Cyclopropylmethyl-3,14β-dihydroxy-4,5α-epoxy-6α-(7-nitroisoquinoline-3-carboxamido)morphinan]
less potent than naltrexone in the MOR [35S]GTPγS binding assay (MOR [1]): ≥ 200 fold

NC(N)=Nc1ccc2c3c([nH]c2c1)[C@@H]1Oc2c(O)ccc4c2[C@@]12CCN(CC1CC1)[C@H](C4)[C@]2(O)C3 [6’-GNTI]
functional activity at KOR (KOR [5]): KOR full agonist

CN(C)c1ccc2cc(C(=O)N[C@H]3CC[C@@]4(O)[C@H]5Cc6ccc(O)c7c6[C@@]4(CCN5CC4CC4)[C@H]3O7)ncc2c1 [Compound 13, 17-Cyclopropylmethyl-3,14β-dihydroxy-4,5α-epoxy-6α-(7-dimethylaminoisoquinoline-3-carboxamido)morphinan]
Selectivity δ/µ (DOR [4]): > 15

O=C(N[C@H]1CC[C@@]2(O)[C@H]3Cc4ccc(O)c5c4[C@@]2(CCN3CC2CC2)[C@H]1O5)c1ncc2ccccc2n1 [Compound 7, 17-Cyclopropylmethyl-3,14β-dihydroxy-4,5α-epoxy-6α-(4-quinazoline-2-carboxamido)morphinan]
Emax (MOR [1]): 21.6 ± 0.8%

O=C(N[C@H]1CC[C@@]2(O)[C@H]3Cc4ccc(O)c5c4[C@@]2(CCN3CC2CC2)[C@H]1O5)c1ncc2ccccc2c1O [Compound 6, 17-Cyclopropylmethyl-3,14β-dihydroxy-4,5α-epoxy-6α-(4-hydroxyisoquinoline-3-carboxamido)morphinan]
Emax (MOR [1]): 20.5 ± 0.9%

COc1c(C(=O)N[C@H]2CC[C@@]3(O)[C@H]4Cc5ccc(O)c6c5[C@@]3(CCN4CC3CC3)[C@H]2O6)nc(Cl)c2ccccc12 [Compound 4, 17-Cyclopropylmethyl-3,14β-dihydroxy-4,5α-epoxy-6α-(1-chloro-4-methoxyisoquinoline-3-carboxamido)morphinan]
difference between the potencies of 4 and morphine in the MOR [35S]GTPγS binding assay (MOR [1]): ~70 fold
agonism, increase of intracellular Ca2+ level (hMOR): did not show any significant agonist activity
higher potency of 4 to 11 in Ca2+ flux antagonism study (hMOR; vs compound 11): 100 fold
DOR [35S]GTPγS potency, less potent compared to naltrexone (DOR [2]): 7- to 25 fold
4 more potent than 11 in the radioligand competition binding assay (MOR [6]): about 10 fold
% MPE, intrinsic antinociceptive effect (Swiss-Webster mice [7]; 10 mg/kg s.c., 20 min after injection, mice, 56 °C): full agonist
difference between the potencies of 4 and morphine in the tail immersion assay (Swiss-Webster mice [7]; vs morphine): ~9 fold
Emax (KOR [8]; read-out: KOR [35S]GTPγS Binding % Emax of U50,488): 7.1 ± 0.5%

O=C(Cc1cc2ccccc2cn1)N[C@H]1CC[C@@]2(O)[C@H]3Cc4ccc(O)c5c4[C@@]2(CCN3CC2CC2)[C@H]1O5 [Compound 1, 17-Cyclopropylmethyl-3,14β-dihydroxy-4,5α-epoxy-6α-[2-(isoquinolin-3-yl)acetamido)morphinan]
Emax (MOR [1]): 18.6 ± 1.1%

CN1Cc2ccccc2C[C@H]1C(=O)N[C@H]1CC[C@@]2(O)[C@H]3Cc4ccc(O)c5c4[C@@]2(CCN3CC2CC2)[C@H]1O5 [Compound 15, 17-Cyclopropylmethyl-3,14β-dihydroxy-4,5α-epoxy-6α-[(S)-(2-methyl-1,2,3,4-tetrahydroisoquinoline-3-carboxamido)]morphinan]
Emax (MOR [1]): 24.8 ± 1.3%

O=C(CNC(=O)c1cc2ccccc2cn1)N[C@H]1CC[C@@]2(O)[C@H]3Cc4ccc(O)c5c4[C@@]2(CCN3CC2CC2)[C@H]1O5 [Compound 3, 17-Cyclopropylmethyl-3,14β-dihydroxy-4,5α-epoxy-6α-[2-(isoquinoline-3-carboxamido)acetamido}morphinan]
Emax (MOR [1]): < 15%

NC(N)=Nc1ccc2[nH]c3c(c2c1)C[C@@]1(O)[C@H]2Cc4ccc(O)c5c4[C@@]1(CCN2CC1CC1)[C@H]3O5 [5’-GNTI, 5’-guanidinonaltrindole]
5’-GNTI more potent than 6’-GNTI at the KOR (KOR [9]): 8 fold
functional activity at KOR (KOR [5]): KOR antagonist

O=C(N[C@H]1CC[C@@]2(O)[C@H]3Cc4ccc(O)c5c4[C@@]2(CCN3CC2CC2)[C@H]1O5)c1cc2cc([N+](=O)[O-])ccc2cn1 [Compound 11, 17-Cyclopropylmethyl-3,14β-dihydroxy-4,5α-epoxy-6α-(6-nitroisoquinoline-3-carboxamido)morphinan]
less potent than naltrexone in the MOR [35S]GTPγS binding assay (MOR [1]): ≥ 200 fold
agonism, increase of intracellular Ca2+ level (hMOR): no apparent agonism
DOR [35S]GTPγS potency, less potent compared to naltrexone (DOR [2]): 7- to 25 fold
withdrawal symptoms in placebo-pelleted mice (Swiss-Webster mice [3]; 30 mg/kg s.c., placebo-pelleted mice): did not induce any significant withdrawal symptoms
escape jumps in morphine-pelleted mice, dose dependence (Swiss-Webster mice [3]; s.c., doses up to 100 mg/kg, plateau at 100 mg/kg): did not precipitate significant jumps in morphine-pelleted mice until 30 mg/kg
wet-dog shakes in morphine-pelleted mice compared to naltrexone (Swiss-Webster mice [3]; s.c., doses up to 100 mg/kg, vs naltrexone 1 mg/kg): significantly less wet-dog shakes
KOR [35S]GTPγS potency, lower than that of NAQ (KOR [8]; vs NAQ): ~6 fold
KOR [35S]GTPγS potency, less potent than naltrexone (KOR [8]; vs naltrexone): ~80 fold
